Assay results reported in PubChem BioAssay (NCI).
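Briefly, cells in 96-well plates were exposed to five compound concentrations for 48 h, and endpoints were estimated by linear interpolation. Here, GI50 denotes the concentration required for 50% inhibition of growth. The concentration for full growth arrest is given as TGI.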

What was measured:
Assay in all cases: DTP human tumour cell line panel, 48 h
BT-549 breast = test system: BT-549 breast
CAKI-1 renal = test system: CAKI-1 renal
KM12 colon = test system: KM12 colon
MDA-MB-231 breast = test system: MDA-MB-231 breast
SK-MEL-28 melanoma = test system: SK-MEL-28 melanoma
SN12C renal = test system: SN12C renal
UACC-257 melanoma = test system: UACC-257 melanoma

SMILES	GI50 (BT-549 breast) [µM]	TGI (BT-549 breast) [µM]	GI50 (CAKI-1 renal) [µM]	TGI (CAKI-1 renal) [µM]	GI50 (KM12 colon) [µM]	TGI (KM12 colon) [µM]	GI50 (MDA-MB-231 breast) [µM]	TGI (MDA-MB-231 breast) [µM]	GI50 (SK-MEL-28 melanoma) [µM]	TGI (SK-MEL-28 melanoma) [µM]	GI50 (SN12C renal) [µM]	TGI (SN12C renal) [µM]	GI50 (UACC-257 melanoma) [µM]	TGI (UACC-257 melanoma) [µM]
CC12CCC(=O)C(O1)C1C(=O)c3ccc4c(ccc5ccccc54)c3C(=O)C12 (stereo not drawn)	6.69	13.2	1.82	6.63	4.99	9.66	2.14	6.64	29.1	> 100	5.42	10.3	3.11	8.15
O=C1C=CC(=O)c2c1ccc1c3ccccc3n(Cc3ccccc3)c21	–	43.9	–	32	–	> 100	–	43.1	–	54	–	42.9	–	40.9
N#CC1=C(N)NC(N2CCOCC2)=NC12Nc1ccccc1O2 (stereo not drawn)	43.5	> 100	25.3	86.7	49.8	> 100	89.9	> 100	> 100	> 100	96.4	> 100	49.7	> 100
CCN(CC)CCCNCc1cc(-c2ccccc2)nc2cc(Cl)ccc12	8.65	21.6	2.35	11.2	2.09	4.82	1.45	4.24	1.72	3.11	4.69	18.2	2.12	5.11
CCCCCCCCCCCNC=O	–	57.5	–	> 100	–	> 100	–	> 100	–	> 100	–	> 100	–	> 100
CC(C)C1(NC(=O)C2CC3c4cccc5[nH]cc(c45)CC3N(C)C2)OC2(O)C3CCCN3C(=O)C(Cc3ccccc3)N2C1=O (stereo not drawn)	–	> 100	–	> 100	–	82.2	–	56.7	–	> 100	–	> 100	–	> 100
